Results reported in ChEMBL document CHEMBL5291721, “A preclinical secondary pharmacology resource illuminates target-adverse drug reaction associations of marketed drugs” (Nat Commun, 2023).

How the values were obtained:
[1] = molecular target: T1, Alpha-2A adrenergic receptor (Homo sapiens, UniProt P08913)
T1 sequence (P08913 whole entry): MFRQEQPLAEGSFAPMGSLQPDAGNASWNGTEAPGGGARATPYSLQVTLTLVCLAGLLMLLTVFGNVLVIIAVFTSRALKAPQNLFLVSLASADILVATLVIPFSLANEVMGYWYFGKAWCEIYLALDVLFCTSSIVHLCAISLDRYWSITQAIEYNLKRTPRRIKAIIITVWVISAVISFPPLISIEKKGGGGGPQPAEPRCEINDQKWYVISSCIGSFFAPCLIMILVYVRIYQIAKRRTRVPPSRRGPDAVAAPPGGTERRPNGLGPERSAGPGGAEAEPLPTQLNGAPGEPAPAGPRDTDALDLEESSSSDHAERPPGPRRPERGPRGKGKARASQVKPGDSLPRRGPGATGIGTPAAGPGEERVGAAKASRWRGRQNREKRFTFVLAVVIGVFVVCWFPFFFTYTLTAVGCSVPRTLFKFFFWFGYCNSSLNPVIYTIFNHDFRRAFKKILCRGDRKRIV

D(1A) dopamine receptor [2] = molecular target: T2, D(1A) dopamine receptor (Homo sapiens, UniProt P21728)
[3] = molecular target: 5-hydroxytryptamine receptor 2B (Homo sapiens, UniProt P41595)
D(1A) dopamine receptor [4] = molecular target: T2, D(1A) dopamine receptor; remark: listed apart in the source
[5] = molecular target: Sodium channel protein type 5 subunit alpha (Homo sapiens, UniProt Q14524); type: functional, cell-based
[6] = molecular target: Gamma-aminobutyric acid type B receptor subunit 1 (Homo sapiens, UniProt Q9UBS5)
Glucocorticoid receptor = molecular target: T3, Glucocorticoid receptor (Homo sapiens, UniProt P04150); type: functional
T3 sequence (P04150 whole entry): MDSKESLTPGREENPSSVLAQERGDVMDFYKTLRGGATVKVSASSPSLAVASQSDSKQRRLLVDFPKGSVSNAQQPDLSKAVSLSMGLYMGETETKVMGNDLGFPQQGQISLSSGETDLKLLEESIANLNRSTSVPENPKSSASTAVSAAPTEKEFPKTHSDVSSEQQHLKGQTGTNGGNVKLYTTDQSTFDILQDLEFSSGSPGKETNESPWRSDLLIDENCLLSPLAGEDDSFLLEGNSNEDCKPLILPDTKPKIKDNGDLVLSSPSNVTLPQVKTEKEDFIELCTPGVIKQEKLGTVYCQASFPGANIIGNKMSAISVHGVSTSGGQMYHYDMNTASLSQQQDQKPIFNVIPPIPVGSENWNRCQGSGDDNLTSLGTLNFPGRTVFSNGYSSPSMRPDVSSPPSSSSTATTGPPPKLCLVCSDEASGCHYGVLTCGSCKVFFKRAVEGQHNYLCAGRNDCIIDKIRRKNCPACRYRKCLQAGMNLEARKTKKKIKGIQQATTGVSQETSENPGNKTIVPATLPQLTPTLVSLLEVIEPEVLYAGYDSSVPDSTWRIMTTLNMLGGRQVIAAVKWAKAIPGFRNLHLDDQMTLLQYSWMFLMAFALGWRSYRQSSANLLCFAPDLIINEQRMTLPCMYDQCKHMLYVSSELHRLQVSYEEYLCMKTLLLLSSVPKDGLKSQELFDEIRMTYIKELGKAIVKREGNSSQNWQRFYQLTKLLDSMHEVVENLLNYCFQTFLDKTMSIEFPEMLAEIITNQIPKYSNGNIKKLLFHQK

[7] = molecular target: Receptor tyrosine-protein kinase erbB-2 (Homo sapiens, UniProt P04626); type: functional
D(1A) dopamine receptor [8] = molecular target: T2, D(1A) dopamine receptor; type: functional, cell-based
Acetylcholinesterase = Acetylcholinesterase (Homo sapiens, UniProt P22303); type: functional
Thromboxane A2 receptor = molecular target: T4, Thromboxane A2 receptor (Homo sapiens, UniProt P21731); type: functional, cell-based
T4 sequence (P21731 whole entry): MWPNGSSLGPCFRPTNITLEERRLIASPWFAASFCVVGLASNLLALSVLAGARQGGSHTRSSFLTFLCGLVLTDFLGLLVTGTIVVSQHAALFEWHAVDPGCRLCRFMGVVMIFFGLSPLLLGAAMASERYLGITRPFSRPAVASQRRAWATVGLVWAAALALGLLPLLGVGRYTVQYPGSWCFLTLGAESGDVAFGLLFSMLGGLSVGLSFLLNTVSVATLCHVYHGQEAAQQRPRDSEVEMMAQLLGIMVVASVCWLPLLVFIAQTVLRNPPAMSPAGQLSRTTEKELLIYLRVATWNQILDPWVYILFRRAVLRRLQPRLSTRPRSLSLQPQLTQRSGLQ

[9] = molecular target: Vascular endothelial growth factor receptor 2 (Homo sapiens, UniProt P35968); type: functional
[10] = molecular target: Epidermal growth factor receptor (Homo sapiens, UniProt P00533); type: functional
[11] = molecular target: Synaptic vesicular amine transporter (Rattus norvegicus, UniProt Q01827); type: functional
[12] = molecular target: T5, Peroxisome proliferator-activated receptor gamma (Homo sapiens, UniProt P37231); type: functional
T5 sequence (P37231 whole entry): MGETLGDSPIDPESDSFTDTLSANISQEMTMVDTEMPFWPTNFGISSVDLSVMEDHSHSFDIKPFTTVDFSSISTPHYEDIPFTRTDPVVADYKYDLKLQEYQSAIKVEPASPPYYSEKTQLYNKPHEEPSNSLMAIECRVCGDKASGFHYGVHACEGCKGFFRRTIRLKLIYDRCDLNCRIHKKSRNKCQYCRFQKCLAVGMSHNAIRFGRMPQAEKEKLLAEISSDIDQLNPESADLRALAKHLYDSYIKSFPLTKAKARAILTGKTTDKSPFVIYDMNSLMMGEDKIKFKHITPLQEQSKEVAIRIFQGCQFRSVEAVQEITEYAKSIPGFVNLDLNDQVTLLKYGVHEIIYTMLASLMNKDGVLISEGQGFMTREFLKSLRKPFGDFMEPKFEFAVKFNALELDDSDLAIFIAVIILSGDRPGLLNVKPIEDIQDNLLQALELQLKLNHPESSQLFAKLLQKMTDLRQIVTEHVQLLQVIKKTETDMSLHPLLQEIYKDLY
Further: assay procedure not described here.

Chain of Acetylcholinesterase (P22303 whole entry): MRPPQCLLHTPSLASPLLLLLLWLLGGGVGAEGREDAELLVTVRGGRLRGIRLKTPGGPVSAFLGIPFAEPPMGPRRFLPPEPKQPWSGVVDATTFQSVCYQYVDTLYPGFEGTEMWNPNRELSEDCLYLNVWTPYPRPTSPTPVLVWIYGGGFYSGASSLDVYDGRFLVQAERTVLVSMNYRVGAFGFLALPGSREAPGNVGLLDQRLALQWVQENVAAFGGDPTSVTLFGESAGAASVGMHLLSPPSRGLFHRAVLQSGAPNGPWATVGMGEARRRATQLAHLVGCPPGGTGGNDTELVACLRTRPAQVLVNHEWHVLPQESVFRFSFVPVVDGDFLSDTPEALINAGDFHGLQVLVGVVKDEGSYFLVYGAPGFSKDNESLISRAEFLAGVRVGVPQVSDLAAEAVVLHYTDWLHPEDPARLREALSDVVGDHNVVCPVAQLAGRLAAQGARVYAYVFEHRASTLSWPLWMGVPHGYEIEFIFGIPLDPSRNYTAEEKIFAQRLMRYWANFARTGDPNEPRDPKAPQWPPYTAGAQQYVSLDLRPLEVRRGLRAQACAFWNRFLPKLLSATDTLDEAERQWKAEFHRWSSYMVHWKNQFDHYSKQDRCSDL
Chain of Sodium channel protein type 5 subunit alpha (Q14524 whole entry): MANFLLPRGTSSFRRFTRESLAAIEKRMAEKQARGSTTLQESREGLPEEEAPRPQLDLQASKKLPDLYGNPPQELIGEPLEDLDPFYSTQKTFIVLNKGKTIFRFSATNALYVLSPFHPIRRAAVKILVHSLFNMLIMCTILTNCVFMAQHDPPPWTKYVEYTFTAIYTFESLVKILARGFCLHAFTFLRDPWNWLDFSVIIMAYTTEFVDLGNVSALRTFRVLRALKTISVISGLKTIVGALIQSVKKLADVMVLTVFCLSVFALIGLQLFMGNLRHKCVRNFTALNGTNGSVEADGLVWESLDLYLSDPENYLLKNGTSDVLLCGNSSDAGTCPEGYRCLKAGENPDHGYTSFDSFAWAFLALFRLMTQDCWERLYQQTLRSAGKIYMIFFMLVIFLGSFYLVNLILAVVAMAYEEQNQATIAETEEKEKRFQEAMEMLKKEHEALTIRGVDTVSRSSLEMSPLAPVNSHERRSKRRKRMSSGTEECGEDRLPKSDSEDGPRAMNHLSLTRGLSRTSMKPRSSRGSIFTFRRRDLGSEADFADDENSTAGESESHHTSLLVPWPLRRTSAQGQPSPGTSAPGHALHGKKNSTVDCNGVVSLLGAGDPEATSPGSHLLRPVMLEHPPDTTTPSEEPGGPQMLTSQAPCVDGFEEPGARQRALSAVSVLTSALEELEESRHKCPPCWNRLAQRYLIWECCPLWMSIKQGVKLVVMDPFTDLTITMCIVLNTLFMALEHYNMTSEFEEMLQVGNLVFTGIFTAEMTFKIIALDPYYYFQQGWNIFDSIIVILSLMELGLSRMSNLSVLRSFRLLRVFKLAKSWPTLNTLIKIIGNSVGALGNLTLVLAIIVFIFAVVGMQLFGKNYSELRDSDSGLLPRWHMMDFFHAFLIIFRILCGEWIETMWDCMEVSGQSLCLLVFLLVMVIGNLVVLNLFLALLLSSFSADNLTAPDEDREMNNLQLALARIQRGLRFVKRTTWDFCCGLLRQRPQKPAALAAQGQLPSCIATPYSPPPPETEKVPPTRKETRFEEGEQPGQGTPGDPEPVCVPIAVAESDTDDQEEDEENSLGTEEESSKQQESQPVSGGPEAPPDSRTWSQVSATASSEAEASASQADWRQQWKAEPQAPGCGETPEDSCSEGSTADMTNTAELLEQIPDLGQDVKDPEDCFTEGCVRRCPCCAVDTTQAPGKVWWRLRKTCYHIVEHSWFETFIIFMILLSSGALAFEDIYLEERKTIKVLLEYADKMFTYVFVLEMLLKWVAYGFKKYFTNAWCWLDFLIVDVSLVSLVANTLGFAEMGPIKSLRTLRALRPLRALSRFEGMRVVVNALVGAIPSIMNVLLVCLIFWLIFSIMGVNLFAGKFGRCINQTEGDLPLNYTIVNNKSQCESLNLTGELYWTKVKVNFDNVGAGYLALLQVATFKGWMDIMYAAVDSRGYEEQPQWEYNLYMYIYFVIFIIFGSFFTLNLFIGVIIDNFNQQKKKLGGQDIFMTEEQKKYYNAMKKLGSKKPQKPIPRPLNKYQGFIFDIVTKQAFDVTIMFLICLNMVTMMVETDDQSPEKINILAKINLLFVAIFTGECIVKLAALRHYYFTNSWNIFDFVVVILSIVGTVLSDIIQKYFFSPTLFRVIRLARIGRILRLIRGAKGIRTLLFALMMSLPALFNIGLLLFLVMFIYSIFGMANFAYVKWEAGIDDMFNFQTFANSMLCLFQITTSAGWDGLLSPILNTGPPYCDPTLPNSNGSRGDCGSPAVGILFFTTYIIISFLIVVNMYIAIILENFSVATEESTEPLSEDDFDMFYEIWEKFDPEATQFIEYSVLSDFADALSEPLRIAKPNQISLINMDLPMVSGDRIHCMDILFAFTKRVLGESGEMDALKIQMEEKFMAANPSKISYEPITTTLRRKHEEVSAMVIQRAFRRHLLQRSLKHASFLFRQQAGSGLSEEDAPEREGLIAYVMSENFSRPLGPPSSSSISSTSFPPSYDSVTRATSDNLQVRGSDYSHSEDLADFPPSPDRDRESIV
Chain of Epidermal growth factor receptor (P00533 whole entry): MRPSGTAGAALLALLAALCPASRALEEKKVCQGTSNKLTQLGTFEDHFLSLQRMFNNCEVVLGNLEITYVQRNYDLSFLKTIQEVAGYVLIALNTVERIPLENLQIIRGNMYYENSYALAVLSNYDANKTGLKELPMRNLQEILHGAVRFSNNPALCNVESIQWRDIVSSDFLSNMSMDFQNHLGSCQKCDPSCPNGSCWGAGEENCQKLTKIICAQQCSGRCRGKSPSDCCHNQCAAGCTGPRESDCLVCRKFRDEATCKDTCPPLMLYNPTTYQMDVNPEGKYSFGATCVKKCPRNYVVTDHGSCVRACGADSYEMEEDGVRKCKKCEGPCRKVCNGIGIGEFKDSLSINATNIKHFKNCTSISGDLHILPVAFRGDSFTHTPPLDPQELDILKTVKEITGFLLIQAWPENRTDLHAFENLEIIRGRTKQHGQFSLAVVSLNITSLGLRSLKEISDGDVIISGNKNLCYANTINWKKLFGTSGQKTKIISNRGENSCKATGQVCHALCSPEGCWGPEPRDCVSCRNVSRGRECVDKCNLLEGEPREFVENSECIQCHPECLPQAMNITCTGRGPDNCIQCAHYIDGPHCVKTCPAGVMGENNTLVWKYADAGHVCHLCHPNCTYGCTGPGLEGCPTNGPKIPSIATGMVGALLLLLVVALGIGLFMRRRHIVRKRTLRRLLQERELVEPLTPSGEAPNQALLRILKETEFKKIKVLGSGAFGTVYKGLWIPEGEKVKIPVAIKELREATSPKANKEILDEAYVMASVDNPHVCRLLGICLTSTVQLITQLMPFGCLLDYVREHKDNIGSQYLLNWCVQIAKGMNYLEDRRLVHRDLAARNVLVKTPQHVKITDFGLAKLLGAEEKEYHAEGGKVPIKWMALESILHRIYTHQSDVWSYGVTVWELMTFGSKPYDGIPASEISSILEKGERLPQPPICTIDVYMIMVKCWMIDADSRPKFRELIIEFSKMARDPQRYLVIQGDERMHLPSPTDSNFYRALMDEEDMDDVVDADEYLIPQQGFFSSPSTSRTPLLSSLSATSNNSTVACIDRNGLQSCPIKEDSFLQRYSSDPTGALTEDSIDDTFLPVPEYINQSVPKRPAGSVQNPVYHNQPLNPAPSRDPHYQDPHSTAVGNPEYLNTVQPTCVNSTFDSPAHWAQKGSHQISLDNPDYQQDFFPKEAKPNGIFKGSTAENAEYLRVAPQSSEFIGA
Chain of 5-hydroxytryptamine receptor 2B (P41595 whole entry): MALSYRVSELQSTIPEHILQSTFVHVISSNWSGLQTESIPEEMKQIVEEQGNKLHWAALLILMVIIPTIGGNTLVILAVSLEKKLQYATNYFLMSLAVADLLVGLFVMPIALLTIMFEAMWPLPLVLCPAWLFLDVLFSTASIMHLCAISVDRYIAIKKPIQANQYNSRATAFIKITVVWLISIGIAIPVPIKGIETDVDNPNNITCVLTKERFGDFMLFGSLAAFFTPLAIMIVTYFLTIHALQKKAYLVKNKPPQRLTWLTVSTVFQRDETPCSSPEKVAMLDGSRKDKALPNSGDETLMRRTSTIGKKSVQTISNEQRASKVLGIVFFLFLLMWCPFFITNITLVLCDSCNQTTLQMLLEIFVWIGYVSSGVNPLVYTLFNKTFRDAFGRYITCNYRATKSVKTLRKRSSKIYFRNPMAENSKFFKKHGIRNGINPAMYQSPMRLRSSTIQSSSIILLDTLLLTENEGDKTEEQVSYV
T2 sequence (P21728 whole entry): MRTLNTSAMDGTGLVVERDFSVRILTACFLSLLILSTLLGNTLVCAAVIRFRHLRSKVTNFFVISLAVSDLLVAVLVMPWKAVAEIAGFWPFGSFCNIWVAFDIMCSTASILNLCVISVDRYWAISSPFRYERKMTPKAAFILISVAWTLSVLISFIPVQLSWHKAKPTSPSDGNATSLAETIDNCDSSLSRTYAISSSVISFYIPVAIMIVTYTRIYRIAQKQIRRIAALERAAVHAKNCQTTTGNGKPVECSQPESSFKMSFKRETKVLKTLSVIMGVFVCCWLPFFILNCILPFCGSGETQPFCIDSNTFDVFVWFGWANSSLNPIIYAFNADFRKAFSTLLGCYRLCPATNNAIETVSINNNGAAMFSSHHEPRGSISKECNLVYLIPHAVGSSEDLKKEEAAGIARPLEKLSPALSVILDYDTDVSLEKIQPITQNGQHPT

CC[C@@H](CO)NC(=O)[C@@H]1C=C2c3cccc4c3c(cn4C)C[C@H]2N(C)C1 [METHYSERGIDE]
AC50 [1]: 2.42 µM

CN[C@@H]1[C@H](O[C@H]2[C@H](O[C@H]3[C@H](O)[C@@H](O)[C@H](NC(=N)N)[C@@H](O)[C@@H]3NC(=N)N)O[C@@H](C)[C@]2(O)CO)O[C@@H](CO)[C@H](O)[C@H]1O [DIHYDROSTREPTOMYCIN]
AC50 (D(1A) dopamine receptor [2]): > 30 µM

CC(C)[C@H](N)C(=O)OCCOCn1cnc2c(=O)[nH]c(N)nc21 [VALACYCLOVIR]
AC50 [3]: > 10 µM | AC50 (D(1A) dopamine receptor [4]): > 10 µM | AC50 [1]: > 10 µM

O=C(O)Cc1ccccc1Nc1c(Cl)cccc1Cl [DICLOFENAC]
AC50 [3]: > 10 µM | AC50 (D(1A) dopamine receptor [4]): > 10 µM | AC50 [5]: > 30 µM | AC50 [1]: > 10 µM | AC50 [6]: > 10 µM

C[C@]12C=CC(=O)C=C1CC[C@H]1[C@@H]3C[C@@H](O)[C@](O)(C(=O)CO)[C@@]3(C)C[C@H](O)[C@@]12F [TRIAMCINOLONE]
AC50 (Glucocorticoid receptor): 1.2 µM

CC(C)(O/N=C(\C(=O)N[C@@H]1C(=O)N2C(C(=O)[O-])=C(C[n+]3ccccc3)CS[C@H]12)c1csc(N)n1)C(=O)O [CEFTAZIDIME]
AC50 [7]: > 300 µM | AC50 (D(1A) dopamine receptor [8]): > 300 µM | AC50 (Acetylcholinesterase): > 300 µM | AC50 (Thromboxane A2 receptor): > 300 µM | AC50 [9]: > 300 µM | AC50 (Glucocorticoid receptor): > 300 µM | AC50 [10]: > 3 µM

C=CC(=O)Nc1cccc(Oc2nc(Nc3ccc(N4CCN(C)CC4)cc3)nc3ccsc23)c1 [OLMUTINIB]
AC50 [11]: 0.44 µM

O=C1Cc2cc(CCN3CCN(c4nsc5ccccc45)CC3)c(Cl)cc2N1 [ZIPRASIDONE]
AC50 [11]: 0.0035 µM | AC50 [3]: 0.0137 µM | AC50 [5]: > 50 µM

CN(CCOc1ccc(CC2SC(=O)NC2=O)cc1)c1ccccn1 (centres undefined) [ROSIGLITAZONE]
AC50 [3]: > 10 µM | AC50 (D(1A) dopamine receptor [4]): > 10 µM | AC50 [5]: > 30 µM | AC50 [1]: > 30 µM | AC50 [6]: > 10 µM

Cc1nnc(SCC2=C(C(=O)O)N3C(=O)[C@@H](NC(=O)Cn4cnnn4)[C@H]3SC2)s1 [CEFAZOLIN]
AC50 [7]: > 300 µM | AC50 (D(1A) dopamine receptor [8]): > 300 µM | AC50 (Acetylcholinesterase): > 300 µM | AC50 (Thromboxane A2 receptor): > 300 µM | AC50 [12]: > 300 µM | AC50 [9]: > 300 µM | AC50 [10]: > 300 µM

Clc1ccc(Cn2c(CN3CCCC3)nc3ccccc32)cc1 [CLEMIZOLE]
AC50 [7]: > 30 µM | AC50 (D(1A) dopamine receptor [8]): > 30 µM | AC50 (Acetylcholinesterase): > 30 µM | AC50 (Thromboxane A2 receptor): > 10 µM | AC50 [12]: > 30 µM | AC50 [9]: > 30 µM | AC50 (Glucocorticoid receptor): > 30 µM | AC50 [10]: > 30 µM

CCCCCCCN(CC)CCCC(O)c1ccc(NS(C)(=O)=O)cc1 (centres undefined) [IBUTILIDE]
AC50 [5]: > 30 µM

Cc1onc(-c2c(F)cccc2Cl)c1C(=O)N[C@@H]1C(=O)N2[C@@H]1SC(C)(C)[C@@H]2C(=O)O [FLOXACILLIN]
AC50 [7]: > 30 µM | AC50 (D(1A) dopamine receptor [8]): > 30 µM | AC50 (Acetylcholinesterase): > 30 µM | AC50 (Thromboxane A2 receptor): > 30 µM | AC50 [12]: > 30 µM | AC50 [9]: > 30 µM | AC50 (Glucocorticoid receptor): > 30 µM | AC50 [10]: > 30 µM

CC(C)Cc1ccc([C@H](C)C(=O)O)cc1 [DEXIBUPROFEN]
AC50 (Glucocorticoid receptor): > 30 µM

O=C(O)Cc1ccccc1Oc1ccc(Cl)cc1Cl [FENCLOFENAC]
AC50 [3]: > 10 µM | AC50 (D(1A) dopamine receptor [4]): > 10 µM | AC50 [1]: > 10 µM

S=P(N1CC1)(N1CC1)N1CC1 [THIOTEPA]
AC50 [7]: > 30 µM | AC50 (D(1A) dopamine receptor [8]): > 30 µM | AC50 (Acetylcholinesterase): > 30 µM | AC50 (Thromboxane A2 receptor): > 30 µM | AC50 [12]: > 30 µM | AC50 [9]: > 30 µM | AC50 (Glucocorticoid receptor): > 30 µM | AC50 [10]: > 30 µM

Cc1ccccc1C(=O)Nc1ccc(C(=O)N2CCCC(O)c3cc(Cl)ccc32)c(C)c1 (centres undefined) [TOLVAPTAN]
AC50 [11]: > 30 µM
